Reference: paper PMC5467912, “Asymmetric regulation of quorum-sensing receptors drives autoinducer-specific gene expression programs in Vibrio cholerae” (PLoS Genetics, 2017)
Several values for one entry are separate records, joined by “and”; a condition that tells them apart may be missing. Identical values can stand only once. Like-named read-outs stand apart in the source and are kept apart here.

Experiments:
CqsS D618N = test system: T1, CqsS D618N; assay: CqsS D618N autophosphorylation in inverted membrane vesicles, 32P (Fig 7A); type: biochemical, Vibrio cholerae
T1 construct: made in house; host or cells: E. coli C43 (DE3), pET21b; used as inverted membrane vesicles

CqsS [1] = target: T2, CqsS (Vibrio cholerae serotype O1, UniProt Q9KM66); assay: cell-based; conditions: for Light production: strain WN1102; for RLU: Strain WN1102
T2 construct: endogenous in cells; host or cells: V. cholerae WN1102 (ΔcqsA ΔluxQ/pBB1), derived from C6706str2

[2] = test system: QS-controlled luxCDABE operon; type: cell-based; conditions: for RLU: PluxPQ-CqsS::3XFLAG LuxS-CqsA-
[3] = test system: QS-controlled luxCDABE operon; type: cell-based
CqsS [4] = type: cell-based; conditions: for CqsS Dimers: LuxS-CqsA-, AI-2 1 μM, CAI-1 5 μM, single replicates
CqsS F166L = conditions: cited from earlier work
WT CqsS = test system: T3, WT CqsS; type: cell-based; conditions: Treatment 1uM
T3 construct: made in house; host or cells: E. coli C43 (DE3), pET21b; used as inverted membrane vesicles

CqsS F162A = assay: CqsS-dependent repression of qrr4-gfp, CqsS F162A (Fig 7C); type: cell-based, Vibrio cholerae; conditions: Treatment 1uM; CqsS mutant F162A
qrr4 = type: cell-based
CqsS C170Y = assay: CqsS-dependent repression of qrr4-gfp, CqsS C170Y (Fig 7C); type: cell-based, Vibrio cholerae; conditions: Treatment 1uM; CqsS mutant C170Y
[5] = ΔcqsA strain carrying luciferase

CCCCCCCCCC(=O)[C@@H](O)CC [CAI-1, (S)-3-hydroxytridecan-4-one]
% Total Phosphorylation (CqsS D618N; agonist 0.32 uM): 95.2512% and 79.8407% and 88.8244% and 85.3997% and 90.9887%
% Total Phosphorylation (CqsS D618N; agonist 0.64 uM): 113.145% and 87.5268% and 103.834% and 64.446% and 85.0733% and 67.8245%
% Total Phosphorylation (CqsS D618N; agonist 1.28 uM): 54.1919% and 72.6606% and 66.4662% and 63.8968% and 70.5235% and 55.5883%
% Total Phosphorylation (CqsS D618N; agonist 6.4 uM): 11.8696% and 10.1556% and 13.3867% and 14.118% and 13.0644% and 14.5467%
% Total Phosphorylation (CqsS D618N; agonist 8 uM): 8.344% and 11.4086% and 9.0715% and 10.6327% and 12.5012% and 11.7307%
% Total Phosphorylation (CqsS D618N; agonist 10 uM): 12.437% and 6.165% and 12.0698% and 9.199% and 10.7397% and 9.533%
% Total Phosphorylation (CqsS D618N; agonist 15 uM): 6.329% and 4.395% and 5.101% and 4.035% and 5.504% and 5.125%
Light production (CqsS [1]; Agonist 0.0119209 nM): 12889 RLU and 8888.9 RLU and 6804.1 RLU
Light production (CqsS [1]; Agonist 0.0476837 nM): 14371 RLU and 11556 RLU and 14048 RLU
Light production (CqsS [1]; Agonist 0.190735 nM): 19162 RLU and 15751 RLU and 14725 RLU
Light production (CqsS [1]; Agonist 0.762939 nM): 27416 RLU and 24171 RLU and 21376 RLU
Light production (CqsS [1]; Agonist 3.05176 nM): 42278 RLU and 41455 RLU and 42909 RLU
Light production (CqsS [1]; Agonist 12.207 nM): 141302 RLU and 122637 RLU and 126432 RLU
Light production (CqsS [1]; Agonist 48.8281 nM): 2056727 RLU and 1989392 RLU and 2067742 RLU
Light production (CqsS [1]; Agonist 195.312 nM): 21777960 RLU and 20597350 RLU and 20387370 RLU
Light production (CqsS [1]; Agonist 781.25 nM): 68306990 RLU and 63315740 RLU and 60445960 RLU
Light production (CqsS [1]; Agonist 3125 nM): 107684000 RLU and 96526460 RLU and 89440220 RLU
Light production (CqsS [1]; Agonist 12500 nM): 110460000 RLU and 105858400 RLU and 100769600 RLU
Light production (CqsS [1]; Agonist 50000 nM): 108923600 RLU and 92244980 RLU and 92565550 RLU
RLU (CqsS [1]; agonist 0.0119209 nM): 6.03E+03 RLU and 5.88E+03 RLU and 4.06E+03 RLU
RLU (CqsS [1]; agonist 0.190735 nM): 1.26E+04 RLU and 1.57E+04 RLU and 1.42E+04 RLU
RLU (CqsS [1]; agonist 0.762939 nM): 2.01E+04 RLU and 2.32E+04 RLU and 2.34E+04 RLU
RLU (CqsS [1]; agonist 3.05176 nM): 2.95E+04 RLU and 3.11E+04 RLU and 2.71E+04 RLU
RLU (CqsS [1]; agonist 12.207 nM): 3.67E+04 RLU and 5.35E+04 RLU and 5.22E+04 RLU
RLU (CqsS [1]; agonist 48.8281 nM): 1.20E+05 RLU and 1.71E+05 RLU and 1.56E+05 RLU
RLU (CqsS [1]; agonist 195.312 nM): 4.96E+06 RLU and 5.24E+06 RLU and 3.77E+06 RLU
RLU (CqsS [1]; agonist 781.25 nM): 5.10E+07 RLU and 6.40E+07 RLU and 5.48E+07 RLU
RLU (CqsS [1]; agonist 3125 nM): 1.12E+08 RLU and 1.35E+08 RLU and 1.31E+08 RLU
RLU (CqsS [1]; agonist 12500 nM): 1.34E+08 RLU and 1.62E+08 RLU and 1.58E+08 RLU
RLU (CqsS [1]; agonist 50000 nM): 1.28E+08 RLU and 1.53E+08 RLU and 1.57E+08 RLU
RLU ([2]; OD600 0.0561): 7.33E+06 RLU
RLU ([2]; OD600 0.3257): 8.15E+05 RLU
RLU ([2]; OD600 1.037): 1.96E+05 RLU
RLU ([2]; OD600 1.243): 3.52E+06 RLU
RLU ([2]; OD600 1.958): 2.58E+09 RLU
RLU ([2]; OD600 2.673): 3.36E+09 RLU
QS response when cqsS is under the luxPQ promoter ([2]; S9B Fig): incapable of inducing the premature response
Light production ([3]; 5nM CAI-1, OD600 0.005): 81418.9 RLU and 88175.7 RLU
Light production ([3]; 5nM CAI-1, OD600 0.0328): 3079268 RLU and 3871951 RLU
Light production ([3]; 5nM CAI-1, OD600 0.1753): 587564 RLU
Light production ([3]; 5nM CAI-1, OD600 0.3442): 310866 RLU and 554910 RLU
Light production ([3]; 5nM CAI-1, OD600 0.801): 179775 RLU and 309613 RLU
Light production ([3]; 5nM CAI-1, OD600 1.26): 81746 RLU and 99206.4 RLU
Light production ([3]; 5nM CAI-1, OD600 1.834): 45747000 RLU and 48964010 RLU
Light production ([3]; 5nM CAI-1, OD600 2.816): 21306820 RLU and 22194600 RLU
Light production ([3]; 5nM CAI-1, OD600 3.828): 7523511 RLU and 7967607 RLU
Light production ([3]; 10nM CAI-1, OD600 0.005): 81418.9 RLU and 88175.7 RLU
Light production ([3]; 10nM CAI-1, OD600 0.0309): 3915858 RLU and 6084143 RLU
Light production ([3]; 10nM CAI-1, OD600 0.3229): 637968 RLU and 656550 RLU
Light production ([3]; 10nM CAI-1, OD600 1.126): 88099.5 RLU and 91474.2 RLU
Light production ([3]; 10nM CAI-1, OD600 1.799): 63924400 RLU and 62812670 RLU
Light production ([3]; 10nM CAI-1, OD600 3.014): 33012610 RLU and 33842070 RLU
Light production ([3]; 10nM CAI-1, OD600 3.657): 10363690 RLU and 11730930 RLU
Light production ([3]; 50nM CAI-1, OD600 0.005): 88175.7 RLU and 81418.9 RLU
Light production ([3]; 50nM CAI-1, OD600 0.17): 729000 RLU and 688000 RLU
Light production ([3]; 50nM CAI-1, OD600 1.08): 697000 RLU
Light production ([3]; 50nM CAI-1, OD600 1.1): 90900 RLU and 113000 RLU
Light production ([3]; 50nM CAI-1, OD600 1.96): 526000000 RLU and 531000000 RLU
Light production ([3]; 50nM CAI-1, OD600 2.94): 619000000 RLU and 599000000 RLU
Light production ([3]; 50nM CAI-1, OD600 3.55): 346000000 RLU and 321000000 RLU
Light production ([3]; 100nM CAI-1, OD600 0.005): 81418.9 RLU and 88175.7 RLU
Light production ([3]; 100nM CAI-1, OD600 0.0305): 3670000 RLU and 6790000 RLU
Light production ([3]; 100nM CAI-1, OD600 0.1651): 654000 RLU and 1050000 RLU
Light production ([3]; 100nM CAI-1, OD600 0.3167): 332000 RLU and 388000 RLU
Light production ([3]; 100nM CAI-1, OD600 0.721): 196000 RLU and 241000 RLU
Light production ([3]; 100nM CAI-1, OD600 1.101): 2280000 RLU
Light production ([3]; 100nM CAI-1, OD600 2.679): 3170000000 RLU
Light production ([3]; 100nM CAI-1, OD600 3.677): 1830000000 RLU and 1870000000 RLU
Light production ([3]; 200nM CAI-1, OD600 0.005): 81418.9 RLU and 88175.7 RLU
Light production ([3]; 200nM CAI-1, OD600 0.0621): 2130000 RLU and 2790000 RLU
Light production ([3]; 200nM CAI-1, OD600 0.3026): 568000 RLU and 806000 RLU
Light production ([3]; 200nM CAI-1, OD600 0.5074): 946000 RLU and 1180000 RLU
Light production ([3]; 200nM CAI-1, OD600 0.5715): 2260000 RLU and 2870000 RLU
Light production ([3]; 200nM CAI-1, OD600 1.099): 27300000 RLU and 26900000 RLU
Light production ([3]; 200nM CAI-1, OD600 1.844): 5910000000 RLU
Light production ([3]; 200nM CAI-1, OD600 2.341): 8370000000 RLU and 9230000000 RLU
Light production ([3]; 200nM CAI-1, OD600 3.352): 11800000000 RLU and 12600000000 RLU
Light production ([3]; 200nM CAI-1, OD600 4.26): 7350000000 RLU and 7860000000 RLU
Light production ([3]; 400nM CAI-1, OD600 0.005): 81418.9 RLU and 88175.7 RLU
Light production ([3]; 400nM CAI-1, OD600 0.0614): 1510000 RLU and 1840000 RLU
Light production ([3]; 400nM CAI-1, OD600 0.3014): 358000 RLU and 392000 RLU
Light production ([3]; 400nM CAI-1, OD600 0.5621): 3290000 RLU and 3630000 RLU
Light production ([3]; 400nM CAI-1, OD600 1.037): 74300000 RLU and 84000000 RLU
Light production ([3]; 400nM CAI-1, OD600 1.532): 10100000000 RLU
Light production ([3]; 400nM CAI-1, OD600 2): 31900000000 RLU and 31800000000 RLU
Light production ([3]; 400nM CAI-1, OD600 3.04): 22900000000 RLU and 24900000000 RLU
Light production ([3]; 400nM CAI-1, OD600 3.35): 22600000000 RLU and 24400000000 RLU
CAI-1 concentration at which induction of bioluminescence occurred [3, 5]: 50 nM
CAI-1 concentrations that failed to activate a QS response [3, 5]: below 50 nM
CAI-1 concentrations that fully induced QS [3, 5]: above 200 nM
CqsS Dimers (CqsS [4]; HCD (OD600 = 2.0)): 114.596 and 64.6161 and 71.1979 and 202.196 and 256.645 and 84.2562 and 79.0603 and 97.3422
CqsS Dimers (CqsS [4]; LCD (OD600 = 0.2)): 74.4347 and 10.9291 and 11.9686 and 59.9755 and 52.7962 and 18.8946 and 26.4401 and 52.893
CqsS protein levels (CqsS [4]; ΔcqsA ΔluxS mutant, LCD and HCD): increased CqsS protein levels to nearly that present in the WT
response of CqsS variant to CAI-1 (CqsS F166L): do not respond
Qrr4-GFP/OD600 (WT CqsS): 1736969 and 1605333 and 1622571
Qrr4-GFP/OD600 (CqsS F162A): 18299880 and 17516110 and 17110990
RLU, average per biological replicate (Totals) (qrr4; LuxS-CqsA- strain + autoinducer, Rep 1-3): 2.55E+08 RLU and 2.82E+08 RLU and 3.63E+08 RLU
reduction of qrr4-luxCDABE expression (qrr4; saturating autoinducer, ΔcqsA ΔluxS mutant): 20 fold
Qrr4-GFP/OD600 (CqsS C170Y): 23520280 and 22034610 and 28130220
